According to the supplement of paper PMC10307832:

Tests used:
Test in all cases: relative viability (nuclei count vs DMSO), 5 days (fraction); higher = more cells survive
NCI-H1299 = system: NCI-H1299
Method in brief: (§1)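 The day after seeding in 1536-well plates, lung cancer cell lines were treated by pin tool with a single drug, or with a fixed anchor-drug dose together with five library-drug doses (not always all listed) in √10 steps. After 5 days, a combined fix-and-stain solution (final 0.05% Triton X-100, 1% formaldehyde, 1 ug/ml Hoechst) was added. Nuclei counted on 4× images gave relative viability as treated counts over vehicle counts, reported as the median of duplicate plates.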

UMC-11 = system: UMC-11
Method in brief: as §1

NCI-H1395 = system: NCI-H1395
Method in brief: as §1

HCC-44 = system: HCC-44
Method in brief: as §1

IA-LM = system: IA-LM
Method in brief: as §1

EKVX = system: EKVX
Method in brief: as §1

NCI-H1755 = system: NCI-H1755
Method in brief: as §1

EBC-1 = system: EBC-1
Method in brief: as §1

NCI-H1703 = system: NCI-H1703
Method in brief: as §1

Calu-6 = system: Calu-6
Method in brief: as §1

LCLC-103H = system: LCLC-103H
Method in brief: as §1

A549 = system: A549
Method in brief: as §1

HCC-15 = system: HCC-15
Method in brief: as §1

`O=c1cc(-c2cccc3c2Sc2ccccc2S3)oc(N2CCOCC2)c1` + C[C@]1(O)C[C@@H](c2nc(-c3ccc4ccc(-c5ccccc5)nc4c3)c3c(N)nccn32)C1 [Linsitinib] (partner 1 µM) gave a relative viability (NCI-H1299; first compound 0.08 µM) of 0.987, a relative viability (NCI-H1299; first compound 0.253 µM) of 1 and a relative viability (NCI-H1299; first compound 0.8 µM) of 1.05. It also gave a relative viability (NCI-H1299; first compound 2.53 µM) of 1.03, a relative viability (NCI-H1299; first compound 8 µM) of 0.984 and a relative viability (UMC-11; first compound 0.08 µM) of 1.16. For the same molecule, the relative viability (UMC-11; first compound 0.253 µM) was 1.17, the relative viability (UMC-11; first compound 0.8 µM) was 1.18 and the relative viability (UMC-11; first compound 2.53 µM) was 1.06. It also gave a relative viability (UMC-11; first compound 8 µM) of 1.23, a relative viability (NCI-H1395; first compound 0.08 µM) of 1.25 and a relative viability (NCI-H1395; first compound 0.253 µM) of 1.06. The relative viability (NCI-H1395; first compound 0.8 µM) was 1.26, the relative viability (NCI-H1395; first compound 2.53 µM) was 0.941 and the relative viability (NCI-H1395; first compound 8 µM) was 1.07. For the same molecule, the relative viability (HCC-44; first compound 0.08 µM) was 0.681, the relative viability (HCC-44; first compound 0.253 µM) was 0.532 and the relative viability (HCC-44; first compound 0.8 µM) was 0.696. It also gave a relative viability (HCC-44; first compound 2.53 µM) of 0.623, a relative viability (HCC-44; first compound 8 µM) of 0.548 and a relative viability (IA-LM; first compound 0.08 µM) of 0.695. The relative viability (IA-LM; first compound 0.253 µM) was 0.919, the relative viability (IA-LM; first compound 0.8 µM) was 0.491 and the relative viability (IA-LM; first compound 2.53 µM) was 0.465. It also gave a relative viability (IA-LM; first compound 8 µM) of 0.343, a relative viability (EKVX; first compound 0.08 µM) of 1.17 and a relative viability (EKVX; first compound 0.253 µM) of 1.13. The relative viability (EKVX; first compound 0.8 µM) was 0.818, the relative viability (EKVX; first compound 2.53 µM) was 1.02 and the relative viability (EKVX; first compound 8 µM) was 0.935. The relative viability (NCI-H1755; first compound 0.08 µM) was 1.03, the relative viability (NCI-H1755; first compound 0.253 µM) was 1.1 and the relative viability (NCI-H1755; first compound 0.8 µM) was 0.978. For the same molecule, the relative viability (NCI-H1755; first compound 2.53 µM) was 1.02, the relative viability (NCI-H1755; first compound 8 µM) was 0.936 and the relative viability (EBC-1; first compound 0.08 µM) was 0.706. For the same molecule, the relative viability (EBC-1; first compound 0.253 µM) was 1.14, the relative viability (EBC-1; first compound 0.8 µM) was 0.828 and the relative viability (EBC-1; first compound 2.53 µM) was 0.871. The relative viability (EBC-1; first compound 8 µM) was 0.91, the relative viability (NCI-H1703; first compound 0.08 µM) was 0.237 and the relative viability (NCI-H1703; first compound 0.253 µM) was 0.636. The relative viability (NCI-H1703; first compound 0.8 µM) was 1.02, the relative viability (NCI-H1703; first compound 2.53 µM) was 0.779 and the relative viability (NCI-H1703; first compound 8 µM) was 0.636. For the same molecule, the relative viability (Calu-6; first compound 0.08 µM) was 0.909, the relative viability (Calu-6; first compound 0.253 µM) was 1.08 and the relative viability (Calu-6; first compound 0.8 µM) was 0.988. It also gave a relative viability (Calu-6; first compound 2.53 µM) of 0.934, a relative viability (Calu-6; first compound 8 µM) of 1.02 and a relative viability (LCLC-103H; first compound 0.08 µM) of 1.06. For the same molecule, the relative viability (LCLC-103H; first compound 0.253 µM) was 1.1, the relative viability (LCLC-103H; first compound 0.8 µM) was 1.08 and the relative viability (LCLC-103H; first compound 2.53 µM) was 1.06. It also gave a relative viability (LCLC-103H; first compound 8 µM) of 1.06, a relative viability (A549; first compound 0.08 µM) of 0.586 and a relative viability (A549; first compound 0.253 µM) of 0.863. For the same molecule, the relative viability (A549; first compound 0.8 µM) was 0.564, the relative viability (A549; first compound 2.53 µM) was 0.583 and the relative viability (A549; first compound 8 µM) was 0.666. For the same molecule, the relative viability (HCC-15; first compound 0.08 µM) was 0.958, the relative viability (HCC-15; first compound 0.253 µM) was 0.93 and the relative viability (HCC-15; first compound 0.8 µM) was 0.904. The relative viability (HCC-15; first compound 2.53 µM) was 0.844 and the relative viability (HCC-15; first compound 8 µM) was 0.88.
Work on `O=c1cc(N2CCOCC2)oc2c(-c3cccc4c3sc3ccccc34)cccc12` + Cc1nc(NC(=O)N2CCC[C@H]2C(N)=O)sc1-c1ccnc(C(C)(C)C(F)(F)F)c1 [Alpelisib] (partner 2 µM) yielded a relative viability (NCI-H1299; first compound 0.01 µM) of 1.05, a relative viability (NCI-H1299; first compound 0.03162 µM) of 1.07 and a relative viability (NCI-H1299; first compound 0.1 µM) of 1.11. It also gave a relative viability (NCI-H1299; first compound 0.3162 µM) of 1.09, a relative viability (NCI-H1299; first compound 1 µM) of 1.09 and a relative viability (UMC-11; first compound 0.01 µM) of 0.995. It also gave a relative viability (UMC-11; first compound 0.03162 µM) of 1.01, a relative viability (UMC-11; first compound 0.1 µM) of 0.986 and a relative viability (UMC-11; first compound 0.3162 µM) of 0.979. For the same molecule, the relative viability (UMC-11; first compound 1 µM) was 0.872, the relative viability (NCI-H1395; first compound 0.01 µM) was 1.1 and the relative viability (NCI-H1395; first compound 0.03162 µM) was 0.976. For the same molecule, the relative viability (NCI-H1395; first compound 0.1 µM) was 0.989, the relative viability (NCI-H1395; first compound 0.3162 µM) was 1.09 and the relative viability (NCI-H1395; first compound 1 µM) was 0.956. The relative viability (HCC-44; first compound 0.01 µM) was 0.841, the relative viability (HCC-44; first compound 0.03162 µM) was 0.841 and the relative viability (HCC-44; first compound 0.1 µM) was 0.826. It also gave a relative viability (HCC-44; first compound 0.3162 µM) of 0.708, a relative viability (HCC-44; first compound 1 µM) of 0.697 and a relative viability (IA-LM; first compound 0.01 µM) of 0.837. The relative viability (IA-LM; first compound 0.03162 µM) was 0.769, the relative viability (IA-LM; first compound 0.1 µM) was 0.828 and the relative viability (IA-LM; first compound 0.3162 µM) was 0.736. For the same molecule, the relative viability (IA-LM; first compound 1 µM) was 0.735, the relative viability (EKVX; first compound 0.01 µM) was 0.88 and the relative viability (EKVX; first compound 0.03162 µM) was 0.868. It also gave a relative viability (EKVX; first compound 0.1 µM) of 0.883, a relative viability (EKVX; first compound 0.3162 µM) of 0.858 and a relative viability (EKVX; first compound 1 µM) of 0.824. For the same molecule, the relative viability (NCI-H1755; first compound 0.01 µM) was 0.952, the relative viability (NCI-H1755; first compound 0.03162 µM) was 0.901 and the relative viability (NCI-H1755; first compound 0.1 µM) was 0.984. It also gave a relative viability (NCI-H1755; first compound 0.3162 µM) of 0.866, a relative viability (NCI-H1755; first compound 1 µM) of 0.894 and a relative viability (EBC-1; first compound 0.01 µM) of 0.977. It also gave a relative viability (EBC-1; first compound 0.03162 µM) of 0.77, a relative viability (EBC-1; first compound 0.1 µM) of 0.837 and a relative viability (EBC-1; first compound 0.3162 µM) of 0.966. The relative viability (EBC-1; first compound 1 µM) was 0.827, the relative viability (NCI-H1703; first compound 0.01 µM) was 0.538 and the relative viability (NCI-H1703; first compound 0.03162 µM) was 0.33. It also gave a relative viability (NCI-H1703; first compound 0.1 µM) of 0.331, a relative viability (NCI-H1703; first compound 0.3162 µM) of 0.317 and a relative viability (NCI-H1703; first compound 1 µM) of 0.317. It also gave a relative viability (Calu-6; first compound 0.01 µM) of 0.98, a relative viability (Calu-6; first compound 0.03162 µM) of 1.05 and a relative viability (Calu-6; first compound 0.1 µM) of 1.01. The relative viability (Calu-6; first compound 0.3162 µM) was 1.04, the relative viability (Calu-6; first compound 1 µM) was 0.974 and the relative viability (LCLC-103H; first compound 0.01 µM) was 0.904. The relative viability (LCLC-103H; first compound 0.03162 µM) was 0.924, the relative viability (LCLC-103H; first compound 0.1 µM) was 1.03 and the relative viability (LCLC-103H; first compound 0.3162 µM) was 1.03. For the same molecule, the relative viability (LCLC-103H; first compound 1 µM) was 0.93, the relative viability (A549; first compound 0.01 µM) was 0.866 and the relative viability (A549; first compound 0.03162 µM) was 0.775. It also gave a relative viability (A549; first compound 0.1 µM) of 0.814, a relative viability (A549; first compound 0.3162 µM) of 0.811 and a relative viability (A549; first compound 1 µM) of 0.845. It also gave a relative viability (HCC-15; first compound 0.01 µM) of 0.87, a relative viability (HCC-15; first compound 0.03162 µM) of 0.92 and a relative viability (HCC-15; first compound 0.1 µM) of 0.971. It also gave a relative viability (HCC-15; first compound 0.3162 µM) of 0.859 and a relative viability (HCC-15; first compound 1 µM) of 0.828.
